Like-named read-outs stand apart in the source and are kept apart here.
Columns and labels:
[1] = Biodistribution in PC-3 tumor-bearing NSG mice (Example 2); format: in vivo; details: male, NSG (NOD.Cg-Prkdc^scid Il2rg^tm1Wjl/SzJ), mouse, iv, total radioactivity; for tissue uptake at 2 h / tissue to tissue ratio at 2 h: 120 MIN p.i.
Experimental: (§1) […]. The mice were sacrificed by CO2 inhalation at 1 h, and 2 h p.i. Blood was collected by cardiac puncture. Organs/tissues were harvested, rinsed with PBS, blotted dry, and weighed. The activity in tissues was assayed by gamma counter and expressed as the percentage injected dose per gram of tissue (% ID/g).

[2] = tested on: PC-3 xenograft bearing mice; test: as above; format: in vivo
Experimental: as §1

[3] = tested on: PC-3 xenograft bearing mice; details: PET/CT, PC-3 tumor-bearing mice
Experimental: Animal experiments were approved by the Animal Ethics Committee of the University of British Columbia.
Mice were sedated and scanned (Siemens Inveon microPET/CT) with body temperature maintained by heating pad. […] PET data were acquired in list mode, reconstructed using 3-dimensional ordered-subsets expectation maximization (2 iterations) followed by a fast maximum a priori algorithm (18 iterations) with CT-based attenuation correction. Images were analyzed using the Inveon Research Workplace software (Siemens Healthineers).

[4] = measured at 5 min and 15 min p.i., mice, radio-HPLC
Description: ^68Ga-ProBOMB2 (5.9±0.3 MBq) was intravenously injected into four male NSG mice. After a 5-min and 15-min uptake period, two mice were sedated/euthanized at each timepoint, and blood was collected. The plasma was extracted from whole blood with acetonitrile, vortexed, and the supernatant separated.

CC(C)C[C@@H](CN1CCC[C@H]1C(N)=O)NC(=O)[C@H](Cc1c[nH]cn1)NC(=O)CNC(=O)[C@@H](NC(=O)[C@H](C)NC(=O)[C@H](Cc1c[nH]c2ccccc12)NC(=O)[C@H](CCC(N)=O)NC(=O)[C@@H](Cc1ccccc1)NC(=O)CN1CCC(NC(=O)CN2CCN(CC(=O)O)CCN(CC(=O)O)CCN(CC(=O)O)CC2)CC1)C(C)C [^68Ga-ProBOMB2, metal not drawn]
tissue uptake at 1 h ([1]; PC-3 tumor, 60 MIN BLOCKED, co-injection of 100 μg of [D-Phe^6,Leu-NHEt^13,des-Met^14]Bombesin(6-14), read-out: Biodistribution PC3 TUMOR, Mean): 3.77 %ID/g
tissue uptake at 1 h ([1]; PC-3 tumor, 60 MIN p.i., read-out: Biodistribution PC3 TUMOR, Mean): 10.8 %ID/g
tissue uptake at 2 h ([1]; PC-3 tumor, read-out: Biodistribution PC3 TUMOR, Mean): 8.79 %ID/g
tissue uptake at 1 h ([1]; adrenal glands, 60 MIN BLOCKED, co-injection of 100 μg of [D-Phe^6,Leu-NHEt^13,des-Met^14]Bombesin(6-14), read-out: Biodistribution ADRENAL GLANDS, Mean): 0.32 %ID/g
tissue uptake at 1 h ([1]; adrenal glands, 60 MIN p.i., read-out: Biodistribution ADRENAL GLANDS, Mean): 0.76 %ID/g
tissue uptake at 2 h ([1]; adrenal glands, read-out: Biodistribution ADRENAL GLANDS, Mean): 0.47 %ID/g
tissue uptake at 1 h ([1]; bone, 60 MIN BLOCKED, co-injection of 100 μg of [D-Phe^6,Leu-NHEt^13,des-Met^14]Bombesin(6-14), read-out: Biodistribution BONE, Mean): 0.13 %ID/g
tissue uptake at 1 h ([1]; bone, 60 MIN p.i., read-out: Biodistribution BONE, Mean): 0.15 %ID/g
tissue uptake at 2 h ([1]; bone, read-out: Biodistribution BONE, Mean): 0.06 %ID/g
tissue uptake at 1 h ([1]; brain, 60 MIN BLOCKED, co-injection of 100 μg of [D-Phe^6,Leu-NHEt^13,des-Met^14]Bombesin(6-14), read-out: Biodistribution BRAIN, Mean): 0.02 %ID/g
tissue uptake at 1 h ([1]; brain, 60 MIN p.i., read-out: Biodistribution BRAIN, Mean): 0.02 %ID/g
tissue uptake at 2 h ([1]; brain, read-out: Biodistribution BRAIN, Mean): 0.01 %ID/g
tissue uptake at 1 h ([1]; fat, 60 MIN BLOCKED, co-injection of 100 μg of [D-Phe^6,Leu-NHEt^13,des-Met^14]Bombesin(6-14), read-out: Biodistribution FAT, Mean): 0.08 %ID/g
tissue uptake at 1 h ([1]; fat, 60 MIN p.i., read-out: Biodistribution FAT, Mean): 0.06 %ID/g
tissue uptake at 2 h ([1]; fat, read-out: Biodistribution FAT, Mean): 0.02 %ID/g
tissue uptake at 1 h ([1]; heart, 60 MIN BLOCKED, co-injection of 100 μg of [D-Phe^6,Leu-NHEt^13,des-Met^14]Bombesin(6-14), read-out: Biodistribution HEART, Mean): 0.16 %ID/g
tissue uptake at 1 h ([1]; heart, 60 MIN p.i., read-out: Biodistribution HEART, Mean): 0.18 %ID/g
tissue uptake at 2 h ([1]; heart, read-out: Biodistribution HEART, Mean): 0.05 %ID/g
tissue uptake at 1 h ([1]; intestine, 60 MIN BLOCKED, co-injection of 100 μg of [D-Phe^6,Leu-NHEt^13,des-Met^14]Bombesin(6-14), read-out: Biodistribution INTESTINE, Mean): 0.34 %ID/g
tissue uptake at 1 h ([1]; intestine, 60 MIN p.i., read-out: Biodistribution INTESTINE, Mean): 0.46 %ID/g
tissue uptake at 2 h ([1]; intestine, read-out: Biodistribution INTESTINE, Mean): 0.19 %ID/g
tissue uptake at 1 h ([1]; kidney, 60 MIN BLOCKED, co-injection of 100 μg of [D-Phe^6,Leu-NHEt^13,des-Met^14]Bombesin(6-14), read-out: Biodistribution KIDNEY, Mean): 2.22 %ID/g
tissue uptake at 1 h ([1]; kidney, 60 MIN p.i., read-out: Biodistribution KIDNEY, Mean): 1.81 %ID/g
tissue uptake at 2 h ([1]; kidney, read-out: Biodistribution KIDNEY, Mean): 1.27 %ID/g
tissue uptake at 1 h ([1]; liver, 60 MIN BLOCKED, co-injection of 100 μg of [D-Phe^6,Leu-NHEt^13,des-Met^14]Bombesin(6-14), read-out: Biodistribution LIVER, Mean): 0.57 %ID/g
tissue uptake at 1 h ([1]; liver, 60 MIN p.i., read-out: Biodistribution LIVER, Mean): 0.43 %ID/g
tissue uptake at 2 h ([1]; liver, read-out: Biodistribution LIVER, Mean): 0.29 %ID/g
tissue uptake at 1 h ([1]; lungs, 60 MIN BLOCKED, co-injection of 100 μg of [D-Phe^6,Leu-NHEt^13,des-Met^14]Bombesin(6-14), read-out: Biodistribution LUNGS, Mean): 0.41 %ID/g
tissue uptake at 1 h ([1]; lungs, 60 MIN p.i., read-out: Biodistribution LUNGS, Mean): 0.39 %ID/g
tissue uptake at 2 h ([1]; lungs, read-out: Biodistribution LUNGS, Mean): 0.13 %ID/g
tissue uptake at 1 h ([1]; muscle, 60 MIN BLOCKED, co-injection of 100 μg of [D-Phe^6,Leu-NHEt^13,des-Met^14]Bombesin(6-14), read-out: Biodistribution MUSCLE, Mean): 0.09 %ID/g
tissue uptake at 1 h ([1]; muscle, 60 MIN p.i., read-out: Biodistribution MUSCLE, Mean): 0.15 %ID/g
tissue uptake at 2 h ([1]; muscle, read-out: Biodistribution MUSCLE, Mean): 0.03 %ID/g
tissue uptake at 1 h ([1]; pancreas, Biodistribution PANCREAS, Mean, 60 MIN BLOCKED, co-injection of 100 μg of [D-Phe^6,Leu-NHEt^13,des-Met^14]Bombesin(6-14), read-out: Biodistribution […], Mean): 0.62 %ID/g
tissue uptake at 1 h ([1]; pancreas, Biodistribution PANCREAS, Mean, 60 MIN p.i., read-out: Biodistribution […], Mean): 1.2 %ID/g
tissue uptake at 2 h ([1]; pancreas, Biodistribution PANCREAS, Mean, read-out: Biodistribution […], Mean): 0.3 %ID/g
tissue uptake at 1 h ([1]; seminal, 60 MIN BLOCKED, co-injection of 100 μg of [D-Phe^6,Leu-NHEt^13,des-Met^14]Bombesin(6-14), read-out: Biodistribution SEMINAL, Mean): 1.95 %ID/g
tissue uptake at 1 h ([1]; seminal, 60 MIN p.i., read-out: Biodistribution SEMINAL, Mean): 2.44 %ID/g
tissue uptake at 2 h ([1]; seminal, read-out: Biodistribution SEMINAL, Mean): 1.63 %ID/g
tissue uptake at 1 h ([1]; spleen, 60 MIN BLOCKED, co-injection of 100 μg of [D-Phe^6,Leu-NHEt^13,des-Met^14]Bombesin(6-14), read-out: Biodistribution SPLEEN, Mean): 0.33 %ID/g
tissue uptake at 1 h ([1]; spleen, 60 MIN p.i., read-out: Biodistribution SPLEEN, Mean): 0.27 %ID/g
tissue uptake at 2 h ([1]; spleen, read-out: Biodistribution SPLEEN, Mean): 0.11 %ID/g
tissue uptake at 1 h ([1]; stomach, 60 MIN BLOCKED, co-injection of 100 μg of [D-Phe^6,Leu-NHEt^13,des-Met^14]Bombesin(6-14), read-out: Biodistribution STOMACH, Mean): 0.07 %ID/g
tissue uptake at 1 h ([1]; stomach, 60 MIN p.i., read-out: Biodistribution STOMACH, Mean): 0.19 %ID/g
tissue uptake at 2 h ([1]; stomach, read-out: Biodistribution STOMACH, Mean): 0.06 %ID/g
tissue uptake at 1 h ([1]; testes, 60 MIN BLOCKED, co-injection of 100 μg of [D-Phe^6,Leu-NHEt^13,des-Met^14]Bombesin(6-14), read-out: Biodistribution TESTES, Mean): 0.21 %ID/g
tissue uptake at 1 h ([1]; testes, 60 MIN p.i., read-out: Biodistribution TESTES, Mean): 0.16 %ID/g
tissue uptake at 2 h ([1]; testes, read-out: Biodistribution TESTES, Mean): 0.07 %ID/g
tissue to tissue ratio at 1 h ([1]; tumor/blood, 60 MIN p.i., read-out: TUMOR-TO-BLOOD ratio, Mean): 22.2
tissue to tissue ratio at 2 h ([1]; tumor/blood, read-out: TUMOR-TO-BLOOD ratio, Mean): 75.3
tissue to tissue ratio at 1 h ([1]; tumor/bone, 60 MIN BLOCKED, co-injection of 100 μg of [D-Phe^6,Leu-NHEt^13,des-Met^14]Bombesin(6-14), read-out: TUMOR-TO-BONE ratio, Mean): 39.8
tissue to tissue ratio at 1 h ([1]; tumor/bone, 60 MIN p.i., read-out: TUMOR-TO-BONE ratio, Mean): 89.9
tissue to tissue ratio at 2 h ([1]; tumor/bone, read-out: TUMOR-TO-BONE ratio, Mean): 173
tissue to tissue ratio at 1 h ([1]; tumor/kidney, 60 MIN BLOCKED, co-injection of 100 μg of [D-Phe^6,Leu-NHEt^13,des-Met^14]Bombesin(6-14), read-out: TUMOR-TO-KIDNEY ratio, Mean): 1.77
tissue to tissue ratio at 1 h ([1]; tumor/kidney, 60 MIN p.i., read-out: TUMOR-TO-KIDNEY ratio, Mean): 6.03
tissue to tissue ratio at 2 h ([1]; tumor/kidney, read-out: TUMOR-TO-KIDNEY ratio, Mean): 6.96
tissue to tissue ratio at 1 h ([1]; tumor/liver, 60 MIN BLOCKED, co-injection of 100 μg of [D-Phe^6,Leu-NHEt^13,des-Met^14]Bombesin(6-14), read-out: TUMOR-TO-LIVER ratio, Mean): 7.33
tissue to tissue ratio at 1 h ([1]; tumor/liver, 60 MIN p.i., read-out: TUMOR-TO-LIVER ratio, Mean): 26.2
tissue to tissue ratio at 2 h ([1]; tumor/liver, read-out: TUMOR-TO-LIVER ratio, Mean): 35
tissue to tissue ratio at 1 h ([1]; tumor/muscle, 60 MIN BLOCKED, co-injection of 100 μg of [D-Phe^6,Leu-NHEt^13,des-Met^14]Bombesin(6-14), read-out: TUMOR-TO-MUSCLE ratio, Mean): 44
tissue to tissue ratio at 1 h ([1]; tumor/muscle, 60 MIN p.i., read-out: TUMOR-TO-MUSCLE ratio, Mean): 102
tissue to tissue ratio at 2 h ([1]; tumor/muscle, read-out: TUMOR-TO-MUSCLE ratio, Mean): 411
tissue to tissue ratio at 1 h ([1]; tumor/pancreas, TUMOR-TO-PANCREAS ratio, Mean, 60 MIN BLOCKED, co-injection of 100 μg of [D-Phe^6,Leu-NHEt^13,des-Met^14]Bombesin(6-14), read-out: TUMOR-TO-[…] ratio, Mean): 6.17
tissue to tissue ratio at 1 h ([1]; tumor/pancreas, TUMOR-TO-PANCREAS ratio, Mean, 60 MIN p.i., read-out: TUMOR-TO-[…] ratio, Mean): 9.32
tissue to tissue ratio at 2 h ([1]; tumor/pancreas, TUMOR-TO-PANCREAS ratio, Mean, read-out: TUMOR-TO-[…] ratio, Mean): 31.1
tissue uptake at 1 h ([1]; whole blood, 60 MIN BLOCKED, co-injection of 100 μg of [D-Phe^6,Leu-NHEt^13,des-Met^14]Bombesin(6-14), read-out: Biodistribution BLOOD, Mean): 0.53 %ID/g
tissue uptake at 1 h ([1]; whole blood, 60 MIN p.i., read-out: Biodistribution BLOOD, Mean): 0.49 %ID/g
tissue uptake at 2 h ([1]; whole blood, read-out: Biodistribution BLOOD, Mean): 0.13 %ID/g
TUMOR-TO-BLOOD ratio, Mean ([2]; 60 MIN BLOCKED, co-injection of 100 μg of [D-Phe^6,Leu-NHEt^13,des-Met^14]Bombesin(6-14)): 7.23
Decrease of average uptake in tumors by co-injection of [D-Phe^6, Leu-NHEt^13, des-Met^14]Bombesin(6-14) ([2]; PC-3 tumors, 60 min p.i., 100 μg blocker): 65%
Clearance pathway [3]: primarily cleared through the renal pathway
Intact in plasma [4]: 89%

— patent US20210402016A1, “RADIOLABELED BOMBESIN-DERIVED COMPOUNDS FOR IN VIVO IMAGING OF GASTRIN-RELEASING PEPTIDE RECEPTOR (GRPR) AND TREATMENT OF GRPR-RELATED DISORDERS” (Provincial Health Services Authority, priority 2018, published 2021)
